Measurements from the NIST ThermoML archive (doi:10.1021/je0256481).
Numbers after ± are expanded uncertainties.

Assay: activity coefficient (dimensionless); of the first substance listed, at infinite dilution; xn = mol fraction of the nth substance listed
Details: Liquid, x1 = 0

| SMILES | activity coefficient (298.15 K) | activity coefficient (313.15 K) | activity coefficient (323.15 K) |
| --- | --- | --- | --- |
| C=CCCCCC [1-heptene] + CCCCCCn1cc[n+](C)c1.F[P-](F)(F)(F)(F)F | 15.3 ± 1.4 | 13.8 ± 1.3 | 12.4 ± 1.1 |
| C#CCCCCC [1-heptyne] + CCCCCCn1cc[n+](C)c1.F[P-](F)(F)(F)(F)F |  | 4.03 ± 0.37 | 4.07 ± 0.37 |
| C#CCCCC [1-hexyne] + CCCCCCn1cc[n+](C)c1.F[P-](F)(F)(F)(F)F |  | 2.78 ± 0.25 | 2.82 ± 0.26 |
| C#CCCCCCC [1-octyne] + CCCCCCn1cc[n+](C)c1.F[P-](F)(F)(F)(F)F |  | 5.86 ± 0.54 | 5.81 ± 0.53 |
| c1ccccc1 [benzene] + CCCCCCn1cc[n+](C)c1.F[P-](F)(F)(F)(F)F | 1.03 ± 0.05 | 1.04 ± 0.06 | 1.07 ± 0.06 |
| C1CCCCCC1 [cycloheptane] + CCCCCCn1cc[n+](C)c1.F[P-](F)(F)(F)(F)F |  | 14.2 ± 1.3 | 11.8 ± 1.1 |
| C1CCCCC1 [cyclohexane] + CCCCCCn1cc[n+](C)c1.F[P-](F)(F)(F)(F)F | 12.7 ± 1.2 | 10.6 ± 0.97 | 9.38 ± 0.86 |
| C1CCCCCCC1 [cyclooctane] + CCCCCCn1cc[n+](C)c1.F[P-](F)(F)(F)(F)F |  | 18.7 ± 1.7 | 12.2 ± 1.1 |
| C1CCCC1 [cyclopentane] + CCCCCCn1cc[n+](C)c1.F[P-](F)(F)(F)(F)F | 8.53 ± 0.78 | 7.21 ± 0.66 | 6.08 ± 0.56 |
| CCCCCCC [heptane] + CCCCCCn1cc[n+](C)c1.F[P-](F)(F)(F)(F)F | 30.6 ± 2.8 | 25.7 ± 2.4 | 22.2 ± 2 |
| C=CCCCC [hex-1-ene] + CCCCCCn1cc[n+](C)c1.F[P-](F)(F)(F)(F)F | 10.4 ± 0.96 | 9.09 ± 0.83 | 7.88 ± 0.72 |
| CCCCCC [hexane] + CCCCCCn1cc[n+](C)c1.F[P-](F)(F)(F)(F)F | 22.5 ± 5.4 | 19.2 ± 4.4 | 15 ± 3 |
| CO [methanol] + CCCCCCn1cc[n+](C)c1.F[P-](F)(F)(F)(F)F | 1.94 ± 0.17 | 1.6 ± 0.13 | 1.44 ± 0.11 |
| C=CCCCCCC [oct-1-ene] + CCCCCCn1cc[n+](C)c1.F[P-](F)(F)(F)(F)F | 21.9 ± 2 | 19.5 ± 1.8 | 18 ± 1.7 |
| CCCCCCCC [octane] + CCCCCCn1cc[n+](C)c1.F[P-](F)(F)(F)(F)F | 44.7 ± 4.2 | 37.1 ± 3.5 | 32 ± 3 |
| CCCCC [pentane] + CCCCCCn1cc[n+](C)c1.F[P-](F)(F)(F)(F)F | 13.7 ± 2.7 | 12.2 ± 2.4 | 8.48 ± 1.4 |
